Results taken from patent publication US4431665A, “Acylated laidlomycin derivatives” (priority 1980, dated 1984).

Assays:
[1] = system: rumen contents (lactic acid accumulation); experiment: Inhibition of lactic acid accumulation, second batch culture fermentation of rumen contents with glucose; assay type: cell-based, bovine (rumen fistulated); settings: 6 h, 39° C.; for Lactic Acid Accumulation (μ mol/ml): Table 8, 0 μg/ml: 40.47; for activity at 1.25 µg/mL / activity at 5 µg/mL / activity at 20 µg/mL / activity at 0.31 µg/mL: Bos taurus, read-out: Accumulation of Lactic Acid - % of Control, Table 4; for Lactic Acid Accumulation: Table 6, 0 μg/ml: 36.65
Protocol: Inhibition of lactic acid accumulation is determined using a second batch culture fermentation system. Rumen contents from a rumen fistulated bovine are mixed with an equal amount of buffer which contains a 150 mM concentration of glucose. Following 6 hours of incubation at 39° C., lactic acid produced in the fermentation is analyzed by a specific enzymatic assay. The concentration of lactic acid in the fermentation broth is quantified by the increase in absorbance of light at […] when nicotinamide adenine dinucleotide is reduced by lactic acid with the aid of lactate dehydrogenase. […]
(§1) The procedure of Example 2 was followed to compare laidlomycin (L.), sodium L. (Na L.), L.-propionate (L.C3), L. butyrate (L.C4), L. isobutyrate (L. isoC4), L. pentanoate (L.C5) and L. hexanoate (L.C6).
(§2) The procedure of Example 2 was followed to compare the activities of L. heptanoate (L. C7), L. octanoate (L. C8), L. decanoate (L. C10) and L. dodecanoate (L. C12) in increasing propionic acid production and inhibiting lactic acid production.
(§3) The procedure of Example 2 was followed to compare the activities of laidlomycin (L.) acetate (L. C2), L. pentanoate (L. C5), L. stearate (L. C18), L. cyclobutylcarboxylate, L. cyclopentylcarboxylate, L. cyclohexylcarboxylate and L. cyclopropylcarboxylate.

[2] = system: rumen microorganisms (mixed microbial population of rumen contents); experiment: Enhancement of intraruminal propionic acid production, batch culture fermentation of rumen contents; assay type: cell-based, bovine (rumen-fistulated); settings: 9 h, 39° C.
Protocol: Enhancement of intraruminal propionic acid production is determined using a batch culture fermentation system. Rumen contents from a rumen-fistulated bovine are mixed with an equal amount of buffer which contains mineral, energy and nitrogen sources required for continued growth and metabolism of the mixed microbial population. Aliquots of this inoculum then are transferred to incubation vessels containing appropriate amounts of sodium laidlomycin (Na L.) (see Example 1A), and L. butyrate (L.C4) (prepared according to the procedure of Example 1A). After 9 hours of incubation at 39° C., concentrations of individual volatile fatty acids in each incubation vessel are determined by gas-liquid chromatography. The net production of each individual volatile fatty acid (acetic [AA], propionic [PA] and butyric [BA]) is calculated as the difference between the concentration after incubation and the concentration before incubation. The molar percentage of propionic acid produced is calculated from the following equation: [formula]
The comparative activities of sodium laidlomycin (Na L.) and the laidlomycin butyrate upon propionic acid and lactic acid production are set forth in Tables 1 and 2 where the concentration is in micrograms per ml (μg/ml).
as §1, §2, §3

[3] = Table 7, 1.25 μg/ml, 0 μg/ml: 36.1
[4] = Table 7, 2.5 μg/ml, 0 μg/ml: 36.1
[5] = Table 7, 5 μg/ml, 0 μg/ml: 36.1
[6] = Table 7, 10 μg/ml, 0 μg/ml: 36.1
[7] = Table 7, 20 μg/ml, 0 μg/ml: 36.1
[8] = Table 7, .313 μg/ml, 0 μg/ml: 36.1
[9] = Table 7, .625 μg/ml, 0 μg/ml: 36.1
[10] = Table 3, 1.25 μg/ml, 0 μg/ml: 28.5
[11] = Table 3, 5 μg/ml, 0 μg/ml: 28.5
[12] = Table 3, 20 μg/ml, 0 μg/ml: 28.5
[13] = Table 3, .31 μg/ml, 0 μg/ml: 28.5
[14] = Table 5, 1.25 μg/ml, 0 μg/ml: 35.5
[15] = Table 5, 2.5 μg/ml, 0 μg/ml: 35.5
[16] = Table 5, 5 μg/ml, 0 μg/ml: 35.5
[17] = Table 5, 10 μg/ml, 0 μg/ml: 35.5
[18] = Table 5, 20 μg/ml, 0 μg/ml: 35.5
[19] = Table 5, .31 μg/ml, 0 μg/ml: 35.5
[20] = Table 5, .63 μg/ml, 0 μg/ml: 35.5

**Q.** What does the source list for CCC(=O)OC(C(C)C(=O)O)C(C)C1OC2(CCC(C)(C3CCC(C)(C4OC(C5OC(O)(COC(=O)C6CC6)C(C)CC5C)CC4C)O3)O2)CC(O)C1C (centres unmarked) [Cyclopropylcarboxylate, laidlomycin cyclopropylcarboxylate]?
**A.** Lactic Acid Accumulation (μ mol/ml) ([1]; 1.25 μg/ml): 2.50 μ mol/ml; Lactic Acid Accumulation (μ mol/ml) ([1]; 2.5 μg/ml): 3.16 μ mol/ml; Lactic Acid Accumulation (μ mol/ml) ([1]; 5 μg/ml): 3.17 μ mol/ml; Lactic Acid Accumulation (μ mol/ml) ([1]; 10 μg/ml): 3.53 μ mol/ml; Lactic Acid Accumulation (μ mol/ml) ([1]; 20 μg/ml): 3.96 μ mol/ml; Lactic Acid Accumulation (μ mol/ml) ([1]; .313 μg/ml): 15.54 μ mol/ml; Lactic Acid Accumulation (μ mol/ml) ([1]; .625 μg/ml): 2.12 μ mol/ml; % Propionic Acid [2, 3]: 49.7%; % Propionic Acid [2, 4]: 49.3%; % Propionic Acid [2, 5]: 50.9%; % Propionic Acid [2, 6]: 49.6%; % Propionic Acid [2, 7]: 50.7%; % Propionic Acid [2, 8]: 47.7%; % Propionic Acid [2, 9]: 46.4%

**Q.** Which activity at 1.25 µg/mL ([1]; 1.25 μg/ml) does the source give for CCC(=O)OC(C(C)C(=O)O)C(C)C1OC2(CCC(C)(C3CCC(C)(C4OC(C5OC(O)(COC(=O)C(C)C)C(C)CC5C)CC4C)O3)O2)CC(O)C1C (centres unmarked) [L. iso C4, laidlomycin isobutyrate] here?
**A.** 12%

**Q.** And the activity at 5 µg/mL ([1]; 5 μg/ml)?
**A.** 13%

**Q.** And the activity at 20 µg/mL ([1]; 20 μg/ml)?
**A.** 16%

**Q.** And the activity at 0.31 µg/mL ([1]; .31 μg/ml)?
**A.** 37%

**Q.** What about the “% Propionic Acid” value [2, 10] of the same compound?
**A.** 39.6%

**Q.** What about the “% Propionic Acid” value [2, 11] of the same compound?
**A.** 43.9%

**Q.** And the “% Propionic Acid” value [2, 12]?
**A.** 47.5%

**Q.** What about the “% Propionic Acid” value [2, 13] of the same compound?
**A.** 34.3%

**Q.** With CCCCCC(=O)OCC1(O)OC(C2CC(C)C(C3(C)CCC(C4(C)CCC5(CC(O)C(C)C(C(C)C(OC(=O)CC)C(C)C(=O)O)O5)O4)O3)O2)C(C)CC1C (centres unmarked) [L. C6, laidlomycin hexanoate] as the compound, how does the activity at 1.25 µg/mL ([1]; 1.25 μg/ml) read?
**A.** 18%

**Q.** What about the activity at 5 µg/mL ([1]; 5 μg/ml) of the same compound?
**A.** 11%

**Q.** What about the activity at 20 µg/mL ([1]; 20 μg/ml) of the same compound?
**A.** 14%

**Q.** And the activity at 0.31 µg/mL ([1]; .31 μg/ml)?
**A.** 60%

**Q.** What about the “% Propionic Acid” value [2, 10] of the same compound?
**A.** 37.1%

**Q.** And the “% Propionic Acid” value [2, 11]?
**A.** 40.1%

**Q.** What about the “% Propionic Acid” value [2, 12] of the same compound?
**A.** 41.7%

**Q.** What about the “% Propionic Acid” value [2, 13] of the same compound?
**A.** 33.0%

**Q.** Which results are given for CCC(=O)OC(C(C)C(=O)O)C(C)C1OC2(CCC(C)(C3CCC(C)(C4OC(C5OC(O)(COC(=O)C6CCCC6)C(C)CC5C)CC4C)O3)O2)CC(O)C1C (centres unmarked) [Cyclopentylcarboxylate, laidlomycin cyclopentylcarboxylate]?
**A.** Lactic Acid Accumulation (μ mol/ml) ([1]; 1.25 μg/ml): 3.63 μ mol/ml; Lactic Acid Accumulation (μ mol/ml) ([1]; 2.5 μg/ml): 3.73 μ mol/ml; Lactic Acid Accumulation (μ mol/ml) ([1]; 5 μg/ml): 4.08 μ mol/ml; Lactic Acid Accumulation (μ mol/ml) ([1]; 10 μg/ml): 4.53 μ mol/ml; Lactic Acid Accumulation (μ mol/ml) ([1]; 20 μg/ml): 9.66 μ mol/ml; Lactic Acid Accumulation (μ mol/ml) ([1]; .313 μg/ml): 24.75 μ mol/ml; Lactic Acid Accumulation (μ mol/ml) ([1]; .625 μg/ml): 6.79 μ mol/ml; % Propionic Acid [2, 3]: 51.9%; % Propionic Acid [2, 4]: 50.3%; % Propionic Acid [2, 5]: 51.1%; % Propionic Acid [2, 6]: 51.6%; % Propionic Acid [2, 7]: 50.0%; % Propionic Acid [2, 8]: 47.1%; % Propionic Acid [2, 9]: 47.9%

**Q.** Which results are given for CCC(=O)OC(C(C)C(=O)O)C(C)C1OC2(CCC(C)(C3CCC(C)(C4OC(C5OC(O)(COC(=O)C6CCCCC6)C(C)CC5C)CC4C)O3)O2)CC(O)C1C (centres unmarked) [Cyclohexylcarboxylate, laidlomycin cyclohexylcarboxylate]?
**A.** Lactic Acid Accumulation (μ mol/ml) ([1]; 1.25 μg/ml): 3.74 μ mol/ml; Lactic Acid Accumulation (μ mol/ml) ([1]; 2.5 μg/ml): 4.40 μ mol/ml; Lactic Acid Accumulation (μ mol/ml) ([1]; 5 μg/ml): 4.83 μ mol/ml; Lactic Acid Accumulation (μ mol/ml) ([1]; 10 μg/ml): 4.97 μ mol/ml; Lactic Acid Accumulation (μ mol/ml) ([1]; 20 μg/ml): 5.72 μ mol/ml; Lactic Acid Accumulation (μ mol/ml) ([1]; .313 μg/ml): 35.55 μ mol/ml; Lactic Acid Accumulation (μ mol/ml) ([1]; .625 μg/ml): 12.78 μ mol/ml; % Propionic Acid [2, 3]: 50.1%; % Propionic Acid [2, 4]: 50.8%; % Propionic Acid [2, 5]: 51.6%; % Propionic Acid [2, 6]: 51.8%; % Propionic Acid [2, 7]: 53.3%; % Propionic Acid [2, 8]: 47.2%; % Propionic Acid [2, 9]: 49.0%

**Q.** CCCCCCCCCCCC(=O)OCC1(O)OC(C2CC(C)C(C3(C)CCC(C4(C)CCC5(CC(O)C(C)C(C(C)C(OC(=O)CC)C(C)C(=O)O)O5)O4)O3)O2)C(C)CC1C (centres unmarked) [L. C12, laidlomycin dodecanoate] was tested. Which “Lactic Acid Accumulation” value ([1]; 1.25 μg/ml) did it give?
**A.** 11.19 µmol/mL

**Q.** And the “Lactic Acid Accumulation” value ([1]; 2.5 μg/ml)?
**A.** 1.04 µmol/mL

**Q.** What about the “Lactic Acid Accumulation” value ([1]; 5 μg/ml) of the same compound?
**A.** 3.32 µmol/mL

**Q.** What about the “Lactic Acid Accumulation” value ([1]; 10 μg/ml) of the same compound?
**A.** 2.16 µmol/mL

**Q.** What about the “Lactic Acid Accumulation” value ([1]; 20 μg/ml) of the same compound?
**A.** 1.65 µmol/mL

**Q.** What about the “Lactic Acid Accumulation” value ([1]; .31 μg/ml) of the same compound?
**A.** 34.90 µmol/mL

**Q.** What about the “Lactic Acid Accumulation” value ([1]; .63 μg/ml) of the same compound?
**A.** 38.01 µmol/mL

**Q.** And the “% Propionic Acid” value [2, 14]?
**A.** 45.3%

**Q.** And the “% Propionic Acid” value [2, 15]?
**A.** 46.1%

**Q.** What about the “% Propionic Acid” value [2, 16] of the same compound?
**A.** 46.8%

**Q.** And the “% Propionic Acid” value [2, 17]?
**A.** 47.7%

**Q.** And the “% Propionic Acid” value [2, 18]?
**A.** 48.0%

**Q.** And the “% Propionic Acid” value [2, 19]?
**A.** 42.0%

**Q.** What about the “% Propionic Acid” value [2, 20] of the same compound?
**A.** 43.8%

**Q.** Which “Lactic Acid Accumulation” value ([1]; 1.25 μg/ml) does the source give for CCCCCCCC(=O)OCC1(O)OC(C2CC(C)C(C3(C)CCC(C4(C)CCC5(CC(O)C(C)C(C(C)C(OC(=O)CC)C(C)C(=O)O)O5)O4)O3)O2)C(C)CC1C (centres unmarked) [L. C8, laidlomycin octanoate] here?
**A.** 1.21 µmol/mL

**Q.** And the “Lactic Acid Accumulation” value ([1]; 2.5 μg/ml)?
**A.** 1.31 µmol/mL

**Q.** And the “Lactic Acid Accumulation” value ([1]; 5 μg/ml)?
**A.** 1.27 µmol/mL

**Q.** What about the “Lactic Acid Accumulation” value ([1]; 10 μg/ml) of the same compound?
**A.** 1.39 µmol/mL

**Q.** What about the “Lactic Acid Accumulation” value ([1]; 20 μg/ml) of the same compound?
**A.** 2.14 µmol/mL

**Q.** And the “Lactic Acid Accumulation” value ([1]; .31 μg/ml)?
**A.** 41.96 µmol/mL

**Q.** What about the “Lactic Acid Accumulation” value ([1]; .63 μg/ml) of the same compound?
**A.** 9.41 µmol/mL

**Q.** And the “% Propionic Acid” value [2, 14]?
**A.** 46.4%

**Q.** What about the “% Propionic Acid” value [2, 15] of the same compound?
**A.** 47.3%

**Q.** What about the “% Propionic Acid” value [2, 16] of the same compound?
**A.** 48.2%

**Q.** What about the “% Propionic Acid” value [2, 17] of the same compound?
**A.** 47.5%

**Q.** What about the “% Propionic Acid” value [2, 18] of the same compound?
**A.** 49.4%

**Q.** What about the “% Propionic Acid” value [2, 19] of the same compound?
**A.** 42.7%

**Q.** And the “% Propionic Acid” value [2, 20]?
**A.** 43.9%
